From patent US20220380764A1, “MOLECULAR GUIDE SYSTEM PEPTIDES AND USES THEREOF” (SRI International, priority 2019, published 2022) come the findings set out here.

One test has as its system H1299 Cells. The test can be described thus: SRI_MGS2_V4 uptake profile (effective dose, stoichiometry, rate of uptake). The format is cell-based. The source says: (§1) 1. Example 1: Effective Dose, Stoichiometry, and Rate of Uptake for MGS 2
In test [1] the test system is H1993 Cells. The test is described as above. The format is cell-based.
Excerpt: as §1

Another test relates to H2009 Cells. The test is described as above. It counts as cell-based.
Excerpt: as §1

The next test relates to H358 Cells. The description is as above. The format is cell-based.
Excerpt: as §1

The test system of test [2] is Non-Small Cell Lung Cancer. Put plainly: Cellular location of MGS, carcinomas and solid tumors. It counts as cell-based. To be noted: for MSG Code and Cellular Location: Table 2, Intracellular = uptake confirmed, exact compartment not determined; for Cellular Location: Table 3, Carcinomas and Solid Tumors. The source says:
(§2) The FOX-Three platform is based on established phage display libraries containing 10^9-10^12 candidate peptide-based MGS members that can be rapidly screened against target cells and subcellular systems to identify specifically targeted MGSs (FIG. 2). Peptides are a well-understood class of biomolecule that are readily synthesized by biological processes and through man-made chemical processes. […] It can be applied to any cell type, regardless of knowledge about the molecular features of that cell, producing a lead MGS in 2-4 weeks. Selected peptide-based MGSs are then readily engineered for optimal performance.
(§3) The FOX-Three Platform has already been validated for targeting of cells and subcellular components. A number of validated MGSs are in various stages of development (Table 1) for a variety of cell targeting systems. Methods of conjugating a variety of payloads to the peptide MGSs have been established without disrupting their targeting ability. […] The FOX-Three screening process was recently refined to include subcellular location targeting as a selection criteria. MGSs have been isolated that accumulate in lysosomes, autophagosomes, and Golgi inside cancer cells, as well as target the plasma membrane.

In test [3] the test system is Carcinomas and Solid Tumors. The test can be described thus: In vivo targeting of MGS. To be noted: Table 3; homing to target cell in an animal model.
Excerpt: as §3

Test [4] has as its system H1993 Cells. The test can be described thus: siRNA internalization with and without MGS (FIG. 5). The format is cell-based. To be noted: SA-647, 5′-Biotinylated siRNA+SA-647, 3′-Biotinylated siRNA+SA-647, alone or conjugated to the MGS. The protocol:
With this objective, novel MGSs were applied to facilitate cell-specific delivery of siRNA. As previously mentioned, these MGSs have the unique ability to bind to specific epithelial-derived cancer cell types, and upon binding, triggers rapid internalization and trafficking to specific subcellular locations. The chemically optimized MGSs have 1-2 nM affinities for their cellular targets, serum stability greater than 48 hours, and approximately 50-1000-fold specificity for targeted cancer cells over normal control cells. […] Internalization experiments were first performed using H1993 cells. For this set of experiments, the group of bars at the far right are 5′-Biotinylated siRNA+SA-647 and 3′-Biotinylated siRNA+SA-647 without MGS. The middle and far left bar groups show SA-647, 5′-Biotinylated siRNA+SA-647, and 3′-Biotinylated siRNA+SA-647 conjugated to a first MGS (SRI_MGS1_V4, right) and a second MGS (SRI_MGS2_V4, middle).

The test system of the next test is Dendritic Cells. Put plainly: Cellular location of MGS, dendritic cells. The format is cell-based. The settings on record: Table 2.
Excerpt: as §2

The next test has as its system Lymphoma Cells. The test can be described thus: Cellular location of MGS, lymphoma and leukemia. It counts as cell-based. The settings on record: Table 2.
Excerpt: as §2

The subject of the next test is Cardiomyocytes. Put plainly: Cellular location of MGS, cardiomyocytes. To be noted: Table 2. It counts as cell-based.
Excerpt: as §2

Square brackets hold non-standard residues; d marks the D form. Primed or numbered codes have the meaning given here. Peptide text beside a SMILES is read from it. PEG12 = NCCOCCOCCOCCOCCOCCOCCOCCOCCOCCOCCOCCOCCC(=O)O; PEG11′ = not defined here

On to `CC(=O)N[C@@H](Cc1ccc(O)cc1)C(=O)N[C@@H](C)C(=O)N[C@@H](C)C(=O)N[C@@H](Cc1c[nH]c2ccccc12)C(=O)N1CCC[C@H]1C(=O)N[C@@H](C)C(=O)N[C@@H](CO)C(=O)NCC(=O)N[C@@H](C)C(=O)N[C@@H](Cc1c[nH]c2ccccc12)C(=O)N[C@H](C(=O)NCCOCCOCCOCCOCCOCCOCCOCCOCCOCCOCCOCCOCCC(=O)N[C@@H](CS)C(N)=O)[C@@H](C)O` [SRI_MGS2_V4, CH3CO-YAAWPASGAWT-PEG11-C-NH2] (Ac-YAAWPASGAWT[PEG12]C-NH2), for which the “Molecules Internalized, 6 H” value in the test on H1299 Cells (H1299 cells, 6 H with constant incubation of 20 nM MGS) is reported as 125500 ± 5430 molecules; in the test with H1993 Cells [1] (H1993 cells, 6 H with constant incubation of 20 nM MGS) it was 134300 ± 6300 molecules; with H2009 Cells (H2009 cells, 6 H with constant incubation of 20 nM MGS) it was 49500 ± 2230 molecules; in the test with H358 Cells (H358 cells, 6 H with constant incubation of 20 nM MGS), 97100 ± 4830 molecules. Moreover, the “Saturation (molecules)” value with H1299 Cells (H1299 cells, average number of MGS molecules internalized per cell at saturation concentration at 1 H) stood at 112800 ± 15500 molecules; in the test on H1993 Cells [1] (H1993 cells, average number of MGS molecules internalized per cell at saturation concentration at 1 H), 141600 ± 28200 molecules; in the test on H2009 Cells (H2009 cells, average number of MGS molecules internalized per cell at saturation concentration at 1 H), 68300 ± 3030 molecules; in the test on H358 Cells (H358 cells, average number of MGS molecules internalized per cell at saturation concentration at 1 H), 99900 ± 9640 molecules. Further, the t1/2 amounted to 37 min in the test with H1299 Cells (H1299 cells, rate of uptake); 12 min in the test with H1993 Cells [1] (H1993 cells, rate of uptake); 13 min with H2009 Cells (H2009 cells, rate of uptake); 11 min in the test with H358 Cells (H358 cells, rate of uptake). Further, the Specificity in the test on H1299 Cells (ratio of MGS uptake on H1299 vs. normal human bronchial epithelial cell line (HBEC)) was found to be 1400; with H1993 Cells [1] (ratio of MGS uptake on H1993 vs. normal human bronchial epithelial cell line (HBEC)), 2300; in the test with H2009 Cells (ratio of MGS uptake on H2009 vs. normal human bronchial epithelial cell line (HBEC)) it was 560; in the test with H358 Cells (ratio of MGS uptake on H358 vs. normal human bronchial epithelial cell line (HBEC)), 1100.
Consider “AHTIDDEWASYHMQQWNSPP (MGS peptide) [MGS_H2009.4]”, for which, in test [2], the “MSG Code and Cellular Location” value is reported as “MGS_H2009.4_Golgi/ER”.
Consider “ATEPRKQYATPRVFWTDAPG (MGS peptide) [MGS_HCC15.1]”, for which, in test [2], the “MSG Code and Cellular Location” value is given as “MGS_HCC15.1_Intracellular”; the “Cellular Location” value is “Lysosome”. Moreover, the “In Vivo Targeting” value in test [3] is “Yes”.
As to “CH3CO-RGDLATLRQL-PEG11-YC-NH2 (Ac-RGDLATLRQL[PEG11′]YC-NH2) [SRI_MGS1_V4]”, the “molecules internalized per cell” value with H1993 Cells [4] is “approximately 25000 molecules internalized per cell”.
As to “EAMNSAEQSAAVVQWEKRRI (MGS peptide) [MGS_H460.1]”, the “MSG Code and Cellular Location” value in [2] is recorded as “MGS_H460.1_PlasmaMembrane”.
As to “EHPWFNMWSWATQVQE (MGS peptide) [MGS_H2009.2]”, in test [2], the “MSG Code and Cellular Location” value was “MGS_H2009.2_Lysosome”; the “Cellular Location” value is on record as “Lysosome”.
On to “FAAKRAEWWDPGQLWDAVWN (MGS peptide) [MGS_H1993.2]”, for which the “MSG Code and Cellular Location” value in [2] is reported as “MGS_H1993.2_Intracellular”.
Same read-out and setting: in the case of “FEEFYSRQSNTIPYPQQYKG (MGS peptide) [MGS_H2009.5]” it was “MGS_H2009.5_ER/Lysosome”.
Regarding “FHAVPQSFYTAP (MGS peptide) [MGS_HCC15.2]”, in test [2], the “MSG Code and Cellular Location” value is reported as “MGS_HCC15.2_Lysosomal”; the “Cellular Location” value is “Lysosome”. For the same compound, in test [3], the “In Vivo Targeting” value was “Yes”.
In the case of “GPEDTSRAPENQQKTFHRRW (MGS peptide) [MGS_XS52.1]”, the “MSG Code and Cellular Location” value in the test with Dendritic Cells is “MGS_XS52.1_Intacellular”.
Take “KSREHVNNSACPSKRITAAL (MGS peptide) [MGS_A20.2]”: the “MSG Code and Cellular Location” value in the test on Lymphoma Cells is reported as “MGS_A20.2_ Plasma Membrane”.
For “LQWRRDDNVHNFGVWARYRL (MGS peptide) [MGS_1299.3]”, in [2], the “MSG Code and Cellular Location” value is reported as “MGS_H1299.3_Autophagosomes”; the “Cellular Location” value is reported as “Autophagasome”. The “In Vivo Targeting” value in test [3] is listed as “Yes”.
Turning to “MDGATWWTQLDPLLVWEGET (MGS peptide) [MGS_H1993.5]”, in [2], the “MSG Code and Cellular Location” value is “MGS_H1993.5_Intracellular”.
On the same count and under the same terms, then “MTVCNASQRQAHAQATAVSL (MGS peptide) [MGS_A549.1]”, with “MGS_A549.1_Intracellular”; and “QEALEEWFWKMMPWSGPSGQ (MGS peptide) [MGS_H1993.3]”, with “MGS_H1993.3_Intracellular”.
Turning to “RGDLATLRQLAQEDGVVGVR (MGS peptide) [MGS_H2009.1]”, in test [2], the “MSG Code and Cellular Location” value was “MGS_H2009.1_Golgi”; the “Cellular Location” value is recorded as “Golgi”. Also, the “In Vivo Targeting” value in [3] is recorded as “Yes”.
On to “SADWFQGPAEWLLEGWMGPL (MGS peptide) [MGS_H1993.6]”, for which the “MSG Code and Cellular Location” value in test [2] is reported as “MGS_H1993.6_Intracellular”.
On to “SAKTAVSQRVWLPSHRGGEP (MGS peptide) [MGS_A20.1]”, for which the “MSG Code and Cellular Location” value in the test on Lymphoma Cells is reported as “MGS_A20.1_PlasmaMembrane”.
“SVEYWGERMYYDVMESLGFS (MGS peptide) [MGS_H1993.1]”: the “MSG Code and Cellular Location” value in [2] is given as “MGS_H1993.1_Lysosome”.
On to “TWTDFGQWPWPFGAEGTRAF (MGS peptide) [MGS_H1993.4]”, for which the “MSG Code and Cellular Location” value in test [2] was “MGS_H1993.4_Pre-mitotic cells”.
Still for that read-out and setting: then “VSQTMRQTAVPLLWFWTGSL (MGS peptide) [MGS_H1299.1]”, with “MGS_H1299.1_Intracellular”.
As to “WLSEAGPVVTVRALRGTGSW (MGS peptide) [MGS_PCM.1]”, the “MSG Code and Cellular Location” value is on record as “MGS_PCM.1_ Plasma Membrane” with Lymphoma Cells and “MGS_PCM.1_Intracellular” in the test with Cardiomyocytes.
Take “YAAWPASGAWTGTAPCSAGT (MGS peptide) [MGS_1299.2]”: in test [2], the “MSG Code and Cellular Location” value is recorded as “MGS_H1299.2_Intracellular”; the “Cellular Location” value is given as “Lysosome”. For the same compound, in test [3], the “In Vivo Targeting” value is listed as “Yes”.
For “YPGSPTQYPSSMHEYHSSSE (MGS peptide) [MGS_H2009.3]”, the “MSG Code and Cellular Location” value in test [2] is “MGS_H2009.3_Lysosome”.
